Source: patent US5847092A (Zambon Group S.p.A., priority 1994, dated 1998)
In brackets after ≈: the same amount, converted by molar mass. Where two headings read alike, the source gives them in different places.

Tests used:
[1] = test system: Streptococcus pneumoniae BS 4; experiment: In vitro antibacterial activity, MIC, broth microdilution; type: cell-based; details: Streptococcus pneumoniae, BS4; S. pneumoniae BS 4; MHB + 5% horse serum; 37° C., 18 hours; read-out: minimum inhibiting concentration MIC
Description: (§1) a) In vitro antibacterial activity The determination of the minimum inhibiting concentrations (MIC), with respect to Gram-positive and Gram-negative bacteria was carried out through the micromethod of gradual broth dilution in double series [National Committee for Clinical Laboratory Standards, 1990; Methods for dilution antimicrobial susceptibility tests for bacteria that grow aerobically; Approved standards […], Villanova, Pa.], by using Mueller Hinton Broth (MHB) as a culture medium. In the case of […] bacteria, horse serum at 5% (Streptococcus pneumoniae and Streptococcus pyogenes) was added to the medium. Roxithromycin and Clarithromycin [The Merck Index, XI Ed., No. 8253 and 2340, respectively] were used as reference macrolides. MIC, expressed as (μg/ml), were determined after incubation of the microplates at 37° C. for 18 hours, evaluating the lowest antibiotic concentration enabling the inhibition of bacterial development.

[2] = test system: Klebsiella pneumoniae ZC 2; experiment: as above; type: cell-based; details: Klebsiella pneumoniae, ZC2; K. pneumoniae ZC 2; MHB; 37° C., 18 hours; read-out: minimum inhibiting concentration MIC
Description: as §1

[3] = test system: Streptococcus pyogenes C 203; experiment: as above; type: cell-based; details: Streptococcus pyogenes, C203; S. pyogenes C 203; MHB + 5% horse serum; 37° C., 18 hours; read-out: minimum inhibiting concentration MIC
Description: as §1

[4] = test system: Enterococcus faecalis ATCC 29212; experiment: as above; type: cell-based; details: Enterococcus faecalis, ATCC29212; E. faecalis ATCC 29212; MHB; 37° C., 18 hours; read-out: minimum inhibiting concentration MIC
Description: as §1

[5] = test system: Escherichia coli ATCC 25922; experiment: as above; type: cell-based; details: Escherichia coli, ATCC25922; E. coli ATCC 25922; MHB; 37° C., 18 hours; read-out: minimum inhibiting concentration MIC
Description: as §1

[6] = test system: Streptococcus pneumoniae BS 3; experiment: as above; type: cell-based; details: Streptococcus pneumoniae, BS3; S. pneumoniae BS 3; MHB + 5% horse serum; 37° C., 18 hours; read-out: minimum inhibiting concentration MIC
Description: as §1

[7] = test system: Streptococcus pyogenes A 26; experiment: as above; type: cell-based; details: Streptococcus pyogenes, A26; S. pyogenes A 26; MHB + 5% horse serum; 37° C., 18 hours; read-out: minimum inhibiting concentration MIC
Description: as §1

[8] = test system: Staphylococcus aureus PV 14; experiment: as above; type: cell-based; details: Staphylococcus aureus, PV14; S. aureus PV 14; MHB; 37° C., 18 hours; read-out: minimum inhibiting concentration MIC
Description: as §1

[9] = test system: Streptococcus pyogenes C 203; experiment: In vivo antibacterial activity, experimental pulmonary infection in mouse; details: for ED50: Streptococcus pyogenes, C203, ip, 240 h, intraperitoneal single dose, read-out: average protecting dose PD50
Description: The in vivo antibacterial activity of the compounds of formula (I), expressed as average protecting dose PD50 (mg/Kg), was evaluated by means of experimental pulmonary infection induced in mouse by Streptococcus pyogenes (example 23).
b) In vivo antibacterial activity
The therapeutical effectiveness, expressed as average protecting dose (PD50), of the considered compounds of formula (I) was evaluated by experimental pulmonary infection induced in mouse by Streptococcus pyogenesC 203.
Charles River albin mice (strain CD 1), of body weight comprised between 23-35 g, stabulated in groups of 6 for cage and normo-feeded with standard diet and water ad libitum were used. A suspension of S. pyogenes C 203 (corresponding about to 10^8 UFC) in tryptose broth (0.05 ml) was intranasally administered to each mouse anesthesized with a mixture of ethyl ether and chloroform.
The compounds under examination were intraperitoneally administered as a single dose, in 0.2% Tween suspension, 24 hours before or 1 hour after the infection.
Mice mortality observation was prolonged up to 10 days from the infection.
PD50 calculation, expressed as (mg/Kg), was carried out through the analysis of probit.
In vivo antibacterial activity, expressed as average protecting dose PD50 (mg/Kg), 24 hours before and 1 hour after the experimental pulmonary infection induced in mouse by Streptococcus pyogenes C 203, of the compounds 4, 10, 16-19, 21, 23, 26-27, 29-30, 33-35 and 38 and of the reference compounds Roxithromycin and Clarithromycin.

Structure (SMILES)	MIC [1]	MIC [2]	MIC [3]	MIC [4]	MIC [5]	MIC [6]	MIC [7]	MIC [8]	ED50 ([9]; 1 hour after infection)	ED50 ([9]; 24 hours before infection)	in vivo activity, pulmonary infection (in words) ([9]; administered 24 hours before the infection)
CC[C@H]1OC(=O)[C@H](C)[C@@H](O[C@H]2C[C@@](C)(OC)[C@@H](O)[C@H](C)O2)[C@H](C)[C@@H](O[C@@H]2O[C@H](C)C[C@H](N(C)C)[C@H]2O)[C@](C)(O)C[C@@H](C)/C(=N\OCCNCCCCCCNCc2ccc(F)cc2)[C@H](C)[C@@H](O)[C@]1(C)O [Compound 16, Erythromycin A (E)-9-[0-[2-[6-[(4-fluorophenyl)methylamino]hexylamino]ethyl]oxime]]	0.0156 µg/mL	8 µg/mL (≈ 8.01 µM)	0.0039 µg/mL	4 µg/mL (≈ 4 µM)	2 µg/mL (≈ 2 µM)	0.0156 µg/mL	0.0156 µg/mL	0.25 µg/mL (≈ 0.25 µM)	3.6 mg/kg	10.2 mg/kg	–
CC[C@H]1OC(=O)[C@H](C)[C@@H](O[C@H]2C[C@@](C)(OC)[C@@H](O)[C@H](C)O2)[C@H](C)[C@@H](O[C@@H]2O[C@H](C)C[C@H](N(C)C)[C@H]2O)[C@](C)(O)C[C@@H](C)/C(=N\OCCNCCCCCCNCc2ccc3c(c2)OCO3)[C@H](C)[C@@H](O)[C@]1(C)O [Compound 18, Erythromycin A (E)-9-[0-[2-[6-[(3,4-methylenedioxyphenyl)methylamino]hexylamino]ethyl]oxime]]	0.0312 µg/mL	16 µg/mL (≈ 15.6 µM)	0.0078 µg/mL	2 µg/mL (≈ 1.95 µM)	2 µg/mL (≈ 1.95 µM)	0.0156 µg/mL	0.0312 µg/mL	0.25 µg/mL (≈ 0.244 µM)	1.32 mg/kg	2.23 mg/kg	–
CC[C@H]1OC(=O)[C@H](C)[C@@H](O[C@H]2C[C@@](C)(OC)[C@@H](O)[C@H](C)O2)[C@H](C)[C@@H](O[C@@H]2O[C@H](C)C[C@H](N(C)C)[C@H]2O)[C@](C)(O)C[C@@H](C)/C(=N\OCCNCCCCCCNCc2cccc(Oc3ccccc3)c2)[C@H](C)[C@@H](O)[C@]1(C)O [Compound 27, Erythromycin A (E)-9-[0-[2-[6-[(3-phenoxyphenyl)methylamino]hexylamino]ethyl]oxime]]	0.0078 µg/mL	2 µg/mL (≈ 1.86 µM)	0.0078 µg/mL	1 µg/mL (≈ 0.932 µM)	1 µg/mL (≈ 0.932 µM)	0.0078 µg/mL	0.0156 µg/mL	0.5 µg/mL (≈ 0.466 µM)	15.6 mg/kg	15.6 mg/kg	–
CC[C@H]1OC(=O)[C@H](C)[C@@H](O[C@H]2C[C@@](C)(OC)[C@@H](O)[C@H](C)O2)[C@H](C)[C@@H](O[C@@H]2O[C@H](C)C[C@H](N(C)C)[C@H]2O)[C@](C)(O)C[C@@H](C)/C(=N\OCCNCCCCCCNCc2cccc(C(F)(F)F)c2)[C@H](C)[C@@H](O)[C@]1(C)O [Compound 19, Erythromycin A (E)-9-[0-[2-[6-[(3-trifluoromethylphenyl)methylamino]hexylamino]ethyl]oxime]]	0.0078 µg/mL	8 µg/mL (≈ 7.62 µM)	0.0156 µg/mL	2 µg/mL (≈ 1.91 µM)	2 µg/mL (≈ 1.91 µM)	0.0156 µg/mL	0.0156 µg/mL	1 µg/mL (≈ 0.953 µM)	1.95 mg/kg	4.84 mg/kg	–
CC[C@H]1OC(=O)[C@H](C)[C@@H](O[C@H]2C[C@@](C)(OC)[C@@H](O)[C@H](C)O2)[C@H](C)[C@@H](O[C@@H]2O[C@H](C)C[C@H](N(C)C)[C@H]2O)[C@](C)(O)C[C@@H](C)/C(=N\OCCNCCCCCCNCc2ccccc2)[C@H](C)[C@@H](O)[C@]1(C)O [Compound 4, Erythromycin A (E)-9-[0-[2-[6-(phenylmethylamino)hexylamino]ethyl]oxime]]	0.0156 µg/mL	16 µg/mL (≈ 16.3 µM)	0.0039 µg/mL	4 µg/mL (≈ 4.08 µM)	4 µg/mL (≈ 4.08 µM)	0.0156 µg/mL	0.0156 µg/mL	0.25 µg/mL (≈ 0.255 µM)	0.9 mg/kg	4.78 mg/kg	–
CC[C@H]1OC(=O)[C@H](C)[C@@H](O[C@H]2C[C@@](C)(OC)[C@@H](O)[C@H](C)O2)[C@H](C)[C@@H](O[C@@H]2O[C@H](C)C[C@H](N(C)C)[C@H]2O)[C@](C)(O)C[C@@H](C)/C(=N\OCCNCCCCCCNCc2ccc(C(F)(F)F)cc2)[C@H](C)[C@@H](O)[C@]1(C)O [Compound 23, Erythromycin A (E)-9-[0-[2-[6-[(4-trifluoromethylphenyl)methylamino]hexylamino]ethyl]oxime]]	0.0078 µg/mL	4 µg/mL (≈ 3.81 µM)	0.0156 µg/mL	2 µg/mL (≈ 1.91 µM)	1 µg/mL (≈ 0.953 µM)	0.0156 µg/mL	0.0156 µg/mL	1 µg/mL (≈ 0.953 µM)	1.46 mg/kg	–	–
CC[C@H]1OC(=O)[C@H](C)[C@@H](O[C@H]2C[C@@](C)(OC)[C@@H](O)[C@H](C)O2)[C@H](C)[C@@H](O[C@@H]2O[C@H](C)C[C@H](N(C)C)[C@H]2O)[C@](C)(O)C[C@@H](C)/C(=N\OCCNCCCCCCNCc2ccc(OC)cc2)[C@H](C)[C@@H](O)[C@]1(C)O [Compound 17, Erythromycin A (E)-9-[0-[2-[6-[(4-methoxyphenyl)methylamino]hexylamino]ethyl]oxime]]	0.0625 µg/mL	16 µg/mL (≈ 15.8 µM)	0.0039 µg/mL	4 µg/mL (≈ 3.96 µM)	4 µg/mL (≈ 3.96 µM)	0.0312 µg/mL	0.0625 µg/mL	0.25 µg/mL (≈ 0.247 µM)	1.17 mg/kg	8.16 mg/kg	–
CC[C@H]1OC(=O)[C@H](C)[C@@H](O[C@H]2C[C@@](C)(OC)[C@@H](O)[C@H](C)O2)[C@H](C)[C@@H](O[C@@H]2O[C@H](C)C[C@H](N(C)C)[C@H]2O)[C@](C)(O)C[C@@H](C)/C(=N\OCCNCCCCCNCc2ccccc2)[C@H](C)[C@@H](O)[C@]1(C)O [Compound 10, Erythromycin A (E)-9-[0-[2-[5-(phenylmethylamino)pentylamino]ethyl]oxime]]	0.0156 µg/mL	16 µg/mL (≈ 16.5 µM)	0.0039 µg/mL	4 µg/mL (≈ 4.14 µM)	4 µg/mL (≈ 4.14 µM)	0.0156 µg/mL	0.0078 µg/mL	0.5 µg/mL (≈ 0.517 µM)	2.36 mg/kg	5.8 mg/kg	–
CC[C@H]1OC(=O)[C@H](C)[C@@H](O[C@H]2C[C@@](C)(OC)[C@@H](O)[C@H](C)O2)[C@H](C)[C@@H](O[C@@H]2O[C@H](C)C[C@H](N(C)C)[C@H]2O)[C@](C)(O)C[C@@H](C)/C(=N\OCCNCCCCCCNCc2ccc(-c3ccccc3)cc2)[C@H](C)[C@@H](O)[C@]1(C)O [Compound 30, Erythromycin A (E)-9-[0-[2-[6-[(biphenyl-4-yl)methylamino]hexylamino]ethyl]oxime]]	0.0156 µg/mL	2 µg/mL (≈ 1.89 µM)	0.0078 µg/mL	1 µg/mL (≈ 0.946 µM)	1 µg/mL (≈ 0.946 µM)	0.0156 µg/mL	0.0156 µg/mL	0.5 µg/mL (≈ 0.473 µM)	19.3 mg/kg	19.3 mg/kg	–
CC[C@H]1OC(=O)[C@H](C)[C@@H](O[C@H]2C[C@@](C)(OC)[C@@H](O)[C@H](C)O2)[C@H](C)[C@@H](O[C@@H]2O[C@H](C)C[C@H](N(C)C)[C@H]2O)[C@](C)(OC)C[C@@H](C)C(=O)[C@H](C)[C@@H](O)[C@]1(C)O [Clarithromycin, reference compound]	0.0156 µg/mL	128 µg/mL (≈ 171 µM)	0.0078 µg/mL	1 µg/mL (≈ 1.34 µM)	64 µg/mL (≈ 85.6 µM)	0.0078 µg/mL	0.0078 µg/mL	0.25 µg/mL (≈ 0.334 µM)	3.25 mg/kg	> 50 mg/kg	inactive
